Data as given in ChEMBL document CHEMBL4346703, “Structure Overhaul Affords a Potent Purine PI3Kδ Inhibitor with Improved Tolerability” (J Med Chem, 2019).

Key:
[1] = fAUC in rat at 750 mg/kg/day; type: ADME, organism-based; settings: in vivo
[2] = fCmax in Beagle dog at 30 mg/kg; type: ADME, organism-based, Canis lupus familiaris; settings: in vivo
Phosphodiesterase 3 = Phosphodiesterase 3 (Homo sapiens, UniProt Q14432+Q13370); assay: Inhibition of PDE3 (unknown origin); type: protein assay
[3] = Protein binding in Wistar Han rat plasma; type: ADME, cell-free; settings: read-out: PPB (converted)
[4] = Plasma clearance in Wistar Han rat at 0.5 mg/kg, iv or 1 mg/kg, po; type: ADME, organism-based
[5] = fCmax in rat at 750 mg/kg/day; type: ADME, organism-based; settings: in vivo
[6] = Inhibition of adenosine transporter in human HeLa cells assessed as reduction in [3H]adenosine uptake preincubated for 30 mins followed by [3H]adenosine addition and measured after 60 mins; type: ADME, cell-based
[7] = Half-life in Wistar Han rat; type: ADME; settings: in vivo
[8] = Oral bioavailability in Beagle dog; type: ADME, organism-based, Canis lupus familiaris; settings: in vivo
[9] = Drug metabolism in dog microsomes assessed as oxidation of imidazopyridinone metabolite; type: ADME, Canis lupus familiaris, Microsome
[10] = Drug metabolism in dog microsomes assessed as N-dealkylation of pyrazole metabolite; type: ADME, Canis lupus familiaris, Microsome
[11] = Toxicity in Beagle dogs assessed as medial necrosis of the arteries by measuring disruption of tunica media by hemorrhage at 30 mg/kg; type: organism-based, Canis lupus familiaris; settings: dog, in vivo
[12] = Oral bioavailability in Wistar Han rat; type: ADME, organism-based; settings: in vivo
[13] = biological target: cAMP and cAMP-inhibited cGMP 3',5'-cyclic phosphodiesterase 10A (Homo sapiens, UniProt Q9Y233); assay: Inhibition of PDE10 (unknown origin)
[14] = biological target: T1, Phosphatidylinositol 4,5-bisphosphate 3-kinase catalytic subunit delta isoform (Homo sapiens, UniProt O00329); assay: Inhibition of PI3Kdelta in human whole blood assessed as reduction in antihuman IgE antibody-stimulated CD63 expression preincubated for 30 mins followed by antihuman IgE antibody stimulation and measured after 20 mins by FACS analysis; type: tissue-based
T1 sequence (O00329 whole entry): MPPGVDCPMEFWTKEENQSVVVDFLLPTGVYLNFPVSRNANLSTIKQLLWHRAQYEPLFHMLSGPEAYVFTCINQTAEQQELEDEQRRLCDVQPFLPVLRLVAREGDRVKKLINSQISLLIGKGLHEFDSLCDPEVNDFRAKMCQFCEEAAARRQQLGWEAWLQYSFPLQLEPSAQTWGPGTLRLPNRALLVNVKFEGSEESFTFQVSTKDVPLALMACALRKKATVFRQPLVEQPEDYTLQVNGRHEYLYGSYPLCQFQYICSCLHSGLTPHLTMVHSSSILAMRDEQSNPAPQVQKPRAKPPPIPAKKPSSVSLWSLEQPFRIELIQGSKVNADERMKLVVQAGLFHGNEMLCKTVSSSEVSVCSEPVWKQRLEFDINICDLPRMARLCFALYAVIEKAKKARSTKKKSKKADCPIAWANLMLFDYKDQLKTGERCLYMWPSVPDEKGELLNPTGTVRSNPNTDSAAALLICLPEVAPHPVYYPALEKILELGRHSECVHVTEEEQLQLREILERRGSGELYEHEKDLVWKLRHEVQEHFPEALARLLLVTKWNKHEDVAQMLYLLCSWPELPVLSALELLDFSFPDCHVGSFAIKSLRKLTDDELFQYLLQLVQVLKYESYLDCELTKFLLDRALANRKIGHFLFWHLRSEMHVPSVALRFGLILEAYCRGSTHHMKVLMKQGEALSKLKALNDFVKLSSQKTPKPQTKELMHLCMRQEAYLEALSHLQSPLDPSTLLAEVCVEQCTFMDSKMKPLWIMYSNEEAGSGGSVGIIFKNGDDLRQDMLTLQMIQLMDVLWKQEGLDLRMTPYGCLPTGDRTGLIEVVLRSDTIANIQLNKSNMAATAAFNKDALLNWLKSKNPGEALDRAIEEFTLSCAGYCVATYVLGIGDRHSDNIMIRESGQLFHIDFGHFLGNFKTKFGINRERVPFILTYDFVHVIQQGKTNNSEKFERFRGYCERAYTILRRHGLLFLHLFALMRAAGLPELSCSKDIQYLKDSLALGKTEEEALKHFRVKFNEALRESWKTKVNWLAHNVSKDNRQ

[15] = Volume of distribution in Beagle dog; type: ADME, Canis lupus familiaris; settings: in vivo
[16] = Protein binding in Beagle dog plasma; type: ADME, cell-free, Canis lupus familiaris; settings: read-out: PPB (converted)
[17] = Stability in human microsomes in the presence of NADPH; type: ADME, Microsome
[18] = Toxicity in rat assessed as increase in heart rate at 750 mg/kg/day; type: organism-based; settings: in vivo
[19] = biological target: PI3-kinase p110-alpha/p85-alpha (Homo sapiens, UniProt P42336); assay: Inhibition of N-terminal His6-tagged recombinant full length human p110alpha/untagged recombinant full length human p85alpha expressed in baculovirus infected Sf21 insect cells using PIP2 as substrate preincubated for 15 mins followed by substrate addition and measured after 1 hr by HTRF assay
[20] = Lipophilicity, log D of the compound; type: physicochemical; settings: octanol/water
[21] = biological target: cGMP-dependent 3',5'-cyclic phosphodiesterase (Homo sapiens, UniProt O00408); assay: Inhibition of PDE2 (unknown origin)
[22] = Volume of distribution in Wistar Han rat; type: ADME; settings: in vivo
[23] = Toxicity in Beagle dogs assessed as medial necrosis of the arteries by measuring disruption of tunica media by fibrin at 30 mg/kg; type: organism-based, Canis lupus familiaris; settings: dog, in vivo
[24] = Unbound volume of distribution in Wistar Han rat; type: ADME; settings: in vivo
Phosphodiesterase 1 = Phosphodiesterase 1 (Homo sapiens, UniProt P54750+Q01064+Q14123); assay: Inhibition of PDE1 (unknown origin); type: protein assay
[25] = Toxicity in rat assessed as increase in blood pressure at 750 mg/kg/day; type: organism-based; settings: in vivo
[26] = biological target: T1, Phosphatidylinositol 4,5-bisphosphate 3-kinase catalytic subunit delta isoform; assay: Inhibition of PI3Kdelta in human Ramos cells assessed as reduction in anti-IgM-antibody-induced phosphorylation of AKT at Ser473 residue preincubated for 20 mins followed by anti-IgM antibody stimulation and measured after 30 mins by alphascreen assay; type: cell-based
[27] = Protein binding in human plasma; type: ADME, cell-free; settings: read-out: PPB (converted)
[28] = Plasma clearance in Beagle dog at 0.25 mg/kg, iv or 0.5 mg/kg, po; type: ADME, organism-based, Canis lupus familiaris
[29] = Toxicity in Beagle dogs assessed as medial necrosis of the arteries by measuring disruption of tunica media by cellular debris at 30 mg/kg; type: organism-based, Canis lupus familiaris; settings: dog, in vivo
[30] = fAUC in Beagle dog at 30 mg/kg; type: ADME, organism-based, Canis lupus familiaris; settings: in vivo
[31] = biological target: T1, Phosphatidylinositol 4,5-bisphosphate 3-kinase catalytic subunit delta isoform; assay: Inhibition of PI3Kdelta in human whole blood assessed as reduction in anti-CD79b antibody-induced CD69 expression preincubated for 60 mins followed by anti-CD79b antibody stimulation and measured after 3 hrs by FACS analysis; type: tissue-based
[32] = Unbound volume of distribution in Beagle dog; type: ADME, Canis lupus familiaris; settings: in vivo
[33] = biological target: T2, Nuclear receptor subfamily 1 group I member 2 (Homo sapiens, UniProt O75469); assay: Activation of PXR (unknown origin); type: ADME
T2 sequence (O75469 whole entry): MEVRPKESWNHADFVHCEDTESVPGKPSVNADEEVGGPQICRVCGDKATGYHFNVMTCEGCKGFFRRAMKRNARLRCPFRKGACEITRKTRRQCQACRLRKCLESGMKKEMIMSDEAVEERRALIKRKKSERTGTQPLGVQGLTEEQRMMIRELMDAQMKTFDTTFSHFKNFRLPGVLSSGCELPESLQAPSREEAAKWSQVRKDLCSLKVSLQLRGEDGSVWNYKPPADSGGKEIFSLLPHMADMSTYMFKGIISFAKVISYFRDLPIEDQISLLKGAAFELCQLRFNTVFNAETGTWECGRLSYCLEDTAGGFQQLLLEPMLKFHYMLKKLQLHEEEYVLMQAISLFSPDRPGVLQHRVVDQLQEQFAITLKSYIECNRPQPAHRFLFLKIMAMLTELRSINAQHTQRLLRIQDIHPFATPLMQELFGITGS

[34] = biological target: PI3-kinase p110-delta/p85-alpha (Homo sapiens, UniProt O00329); assay: Inhibition of N-terminal His6-tagged recombinant full length human p110delta/untagged recombinant full length human p85alpha expressed in baculovirus infected Sf21 insect cells using PIP2 as substrate preincubated for 15 mins followed by substrate addition and measured after 1 hr by HTRF assay
[35] = Intrinsic clearance in Wistar Han rat at 0.5 mg/kg, iv or 1 mg/kg, po; type: ADME, organism-based; settings: in vivo
[36] = Stability in rat microsomes in the presence of NADPH; type: ADME, Microsome
Phosphodiesterase 4 = Phosphodiesterase 4 (Homo sapiens, UniProt P27815+Q08499+Q07343+Q08493); assay: Inhibition of PDE4 (unknown origin); type: protein assay
[37] = Half-life in Beagle dog; type: ADME, Canis lupus familiaris; settings: in vivo

cGMP-dependent 3',5'-cyclic phosphodiesterase, sequence (O00408 whole entry): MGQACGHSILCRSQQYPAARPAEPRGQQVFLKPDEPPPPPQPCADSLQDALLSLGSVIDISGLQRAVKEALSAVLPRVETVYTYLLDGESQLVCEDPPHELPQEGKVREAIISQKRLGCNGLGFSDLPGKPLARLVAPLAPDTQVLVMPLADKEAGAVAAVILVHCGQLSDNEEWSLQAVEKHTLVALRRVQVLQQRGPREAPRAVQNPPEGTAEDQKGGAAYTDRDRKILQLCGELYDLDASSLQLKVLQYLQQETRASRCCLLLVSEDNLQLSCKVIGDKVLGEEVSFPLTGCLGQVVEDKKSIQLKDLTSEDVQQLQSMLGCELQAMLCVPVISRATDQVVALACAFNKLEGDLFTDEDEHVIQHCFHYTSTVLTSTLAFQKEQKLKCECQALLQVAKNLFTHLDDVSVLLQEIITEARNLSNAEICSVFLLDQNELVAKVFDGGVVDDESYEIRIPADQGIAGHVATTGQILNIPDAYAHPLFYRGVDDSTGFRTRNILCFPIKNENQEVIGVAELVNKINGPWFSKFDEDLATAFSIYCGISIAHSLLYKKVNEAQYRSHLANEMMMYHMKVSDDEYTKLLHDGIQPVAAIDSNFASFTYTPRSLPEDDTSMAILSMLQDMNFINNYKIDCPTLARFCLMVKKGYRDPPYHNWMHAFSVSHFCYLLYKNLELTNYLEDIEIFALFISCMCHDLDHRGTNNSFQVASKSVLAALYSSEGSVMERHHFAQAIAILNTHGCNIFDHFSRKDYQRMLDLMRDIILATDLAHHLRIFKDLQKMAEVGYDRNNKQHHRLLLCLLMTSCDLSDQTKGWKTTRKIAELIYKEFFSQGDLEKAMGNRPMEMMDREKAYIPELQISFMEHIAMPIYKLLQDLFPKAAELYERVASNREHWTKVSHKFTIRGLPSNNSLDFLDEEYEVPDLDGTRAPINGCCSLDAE
cAMP and cAMP-inhibited cGMP 3',5'-cyclic phosphodiesterase 10A, sequence (Q9Y233 whole entry, canonical isoform): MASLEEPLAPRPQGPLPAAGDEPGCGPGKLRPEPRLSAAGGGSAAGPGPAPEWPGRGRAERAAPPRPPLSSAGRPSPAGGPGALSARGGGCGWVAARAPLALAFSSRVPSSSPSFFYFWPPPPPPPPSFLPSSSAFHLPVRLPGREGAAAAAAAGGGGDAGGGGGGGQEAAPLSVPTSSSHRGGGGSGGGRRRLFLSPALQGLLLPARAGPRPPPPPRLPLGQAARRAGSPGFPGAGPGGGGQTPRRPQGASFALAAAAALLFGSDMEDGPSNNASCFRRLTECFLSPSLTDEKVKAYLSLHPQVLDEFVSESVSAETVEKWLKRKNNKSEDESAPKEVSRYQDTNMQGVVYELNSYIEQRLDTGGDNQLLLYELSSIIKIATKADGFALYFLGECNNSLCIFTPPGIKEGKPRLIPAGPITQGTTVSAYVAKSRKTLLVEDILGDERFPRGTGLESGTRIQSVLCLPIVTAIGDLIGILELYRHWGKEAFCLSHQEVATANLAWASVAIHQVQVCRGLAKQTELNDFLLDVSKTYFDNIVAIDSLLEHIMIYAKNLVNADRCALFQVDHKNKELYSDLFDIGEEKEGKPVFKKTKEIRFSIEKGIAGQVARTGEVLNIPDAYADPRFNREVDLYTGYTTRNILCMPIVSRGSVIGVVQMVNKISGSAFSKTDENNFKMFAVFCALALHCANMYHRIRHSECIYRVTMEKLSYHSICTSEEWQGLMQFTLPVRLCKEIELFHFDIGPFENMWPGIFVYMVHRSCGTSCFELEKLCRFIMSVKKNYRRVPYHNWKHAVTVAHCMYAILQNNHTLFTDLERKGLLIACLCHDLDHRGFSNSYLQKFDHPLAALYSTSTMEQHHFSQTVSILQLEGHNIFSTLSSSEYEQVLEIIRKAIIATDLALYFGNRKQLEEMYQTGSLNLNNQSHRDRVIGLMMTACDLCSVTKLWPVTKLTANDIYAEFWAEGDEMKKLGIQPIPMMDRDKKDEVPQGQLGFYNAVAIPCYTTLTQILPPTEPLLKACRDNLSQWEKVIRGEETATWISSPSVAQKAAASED
PI3-kinase p110-delta/p85-alpha, sequence (P27986 whole entry, one chain of several): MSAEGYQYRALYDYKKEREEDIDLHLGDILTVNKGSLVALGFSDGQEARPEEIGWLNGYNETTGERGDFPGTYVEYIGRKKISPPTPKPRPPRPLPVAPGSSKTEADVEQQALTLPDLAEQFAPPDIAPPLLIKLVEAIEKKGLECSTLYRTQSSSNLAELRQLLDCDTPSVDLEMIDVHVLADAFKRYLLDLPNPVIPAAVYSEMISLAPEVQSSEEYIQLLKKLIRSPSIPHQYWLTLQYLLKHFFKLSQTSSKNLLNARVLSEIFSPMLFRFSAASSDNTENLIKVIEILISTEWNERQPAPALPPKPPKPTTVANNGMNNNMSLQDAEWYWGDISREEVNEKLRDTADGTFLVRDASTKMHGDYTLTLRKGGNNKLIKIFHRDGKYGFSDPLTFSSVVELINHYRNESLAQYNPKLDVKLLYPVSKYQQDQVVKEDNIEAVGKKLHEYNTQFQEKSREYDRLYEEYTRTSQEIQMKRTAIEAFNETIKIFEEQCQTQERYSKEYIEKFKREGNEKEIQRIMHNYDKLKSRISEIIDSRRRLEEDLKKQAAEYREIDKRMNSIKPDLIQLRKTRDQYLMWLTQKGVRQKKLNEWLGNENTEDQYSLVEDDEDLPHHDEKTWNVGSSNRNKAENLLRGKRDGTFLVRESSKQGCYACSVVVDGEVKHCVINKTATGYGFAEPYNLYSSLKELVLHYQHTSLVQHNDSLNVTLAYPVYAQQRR
PI3-kinase p110-alpha/p85-alpha, sequence (P27986 whole entry): as the sequence (P27986 whole entry, one chain of several) above
PI3-kinase p110-alpha/p85-alpha, sequence (P42336 whole entry): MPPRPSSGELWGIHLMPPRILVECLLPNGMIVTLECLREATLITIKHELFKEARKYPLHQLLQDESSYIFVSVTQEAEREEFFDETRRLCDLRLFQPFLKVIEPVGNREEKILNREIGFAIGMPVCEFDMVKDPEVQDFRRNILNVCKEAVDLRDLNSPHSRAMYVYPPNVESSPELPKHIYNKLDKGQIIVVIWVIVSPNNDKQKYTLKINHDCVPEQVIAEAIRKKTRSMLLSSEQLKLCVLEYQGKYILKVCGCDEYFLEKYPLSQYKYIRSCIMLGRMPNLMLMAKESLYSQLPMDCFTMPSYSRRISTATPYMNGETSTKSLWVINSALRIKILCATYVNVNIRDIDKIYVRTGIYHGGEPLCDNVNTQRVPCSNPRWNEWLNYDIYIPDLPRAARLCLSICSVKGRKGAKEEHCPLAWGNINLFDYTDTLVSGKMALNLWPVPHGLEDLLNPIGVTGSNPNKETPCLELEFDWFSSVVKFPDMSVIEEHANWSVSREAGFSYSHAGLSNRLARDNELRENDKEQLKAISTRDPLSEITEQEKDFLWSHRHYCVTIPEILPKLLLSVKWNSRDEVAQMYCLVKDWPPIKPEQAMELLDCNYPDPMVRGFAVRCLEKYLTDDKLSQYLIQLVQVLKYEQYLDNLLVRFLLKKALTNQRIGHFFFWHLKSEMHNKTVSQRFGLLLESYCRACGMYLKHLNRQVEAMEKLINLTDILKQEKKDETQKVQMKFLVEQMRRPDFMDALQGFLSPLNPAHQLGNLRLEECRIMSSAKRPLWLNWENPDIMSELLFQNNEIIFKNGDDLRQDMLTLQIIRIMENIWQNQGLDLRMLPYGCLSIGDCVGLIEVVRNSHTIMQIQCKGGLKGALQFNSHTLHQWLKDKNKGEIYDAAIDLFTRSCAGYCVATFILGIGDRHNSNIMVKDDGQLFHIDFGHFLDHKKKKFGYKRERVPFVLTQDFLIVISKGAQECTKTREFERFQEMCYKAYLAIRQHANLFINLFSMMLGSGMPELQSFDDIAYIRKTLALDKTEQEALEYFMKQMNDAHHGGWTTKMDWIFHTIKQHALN

fAUC [1]: 123 µM·h
fCmax [2]: 0.33 µM
IC50 (Phosphodiesterase 3): 1030 nM
fraction unbound [3]: 0.1
clearance [4]: 5.8 mL/min/kg
fCmax [5]: 8 µM
IC50 [6]: 72 nM
half-life [7]: 1.2 h
bioavailability [8]: 61%
Drug metabolism [9]: Metabolite_Detected
Drug metabolism [10]: Metabolite_Detected
bioavailability [12]: 76%
IC50 [13]: 4010 nM
IC50 [14]: 790 nM
Vd [15]: 4.6 L/kg
fraction unbound [16]: 0.05
Stability [17]: Stable
IC50 [19]: 450 nM
logD [20]: 1.4
IC50 [21]: 4900 nM
Vd [22]: 0.4 L/kg
Vdu [24]: 4 L/kg
IC50 (Phosphodiesterase 1): 2350 nM
IC50 [26]: 63 nM
fraction unbound [27]: 0.21
clearance [28]: 46 mL/min/kg
fAUC [30]: 4.4 µM·h
IC50 [31]: 810 nM
Vdu [32]: 90 L/kg
Activity [33]: Not Active
IC50 [34]: 6.3 nM
CL [35]: 60 mL/min/kg
Stability [36]: Stable
IC50 (Phosphodiesterase 4): 1190 nM
half-life [37]: 1.1 h
SMILES: CCn1ncc(-c2nc3c(N4CCC(n5c(=O)[nH]c6ncccc65)CC4)ncnc3n2C)c1C
Activity [11]: Non-Toxic
Activity [18]: 100 bpm
Activity [23]: Non-Toxic
Activity [25]: 20 mmHg
Activity [29]: Non-Toxic
